“Also recorded” adds a separate entry of the source.
Tests used:
[1] = tested on: MCF-10A 'normal' human breast cells; experiment: microbubble attachment to cells, parallel plate flow chamber; format: cell-based; settings: MCF-10A 'normal' breast cells; 400×; FIGS. 5, 9-11
Experimental: (§1) To create biotinylated microbubbles, the synthesized biotin-bleomycin A5 ligand was conjugated to Targestar^B Targeted Ultrasound Contrast Agent (Targeson). Four hundred microliters of Coupling Reagent (Targeson) were added to 1.5 mL of conjugated Targestar^B microbubbles and incubated for 20 min at room temperature, with gentle agitation every 5 min. The product was divided into two syringes, rinsed with 1.75 mL of Infusion Buffer, and then centrifuged for 3 min at 400×g (10° C.). The infranatant was then drained to 1 mL. Fifty μL of biotinylated bleomycin A5 was added to one of the vials and both were incubated at room temperature for 20 min with gentle agitation every 5 min. To each sample was added 1.75 mL of Infusion Buffer before centrifugation for 3 min at 400×g (10° C.). This solution was then drained to 1.0 mL before recovery of the supernatant and repetition of the previous step. Finally, the supernatant was resuspended in Infusion Buffer to a final volume of 2.0 mL.
Attachment of the biotinylated microbubble to the cultured MCF-7 breast cancer cells was imaged using an inverted microscope Zeiss Axiovert 200M fitted with an AxioCam MRm camera. Adherent cancer cells on glass cover slips were assembled into a parallel plate flow chamber (Bioptechs FCS2, Micro-Environmental Systems) with a constant temperature maintained at 37° C. […]

[2] = tested on: MCF-7 human breast carcinoma cells; experiment: as above; format: cell-based; settings: 400×
Experimental: MCF-7 human breast carcinoma cells (ATCC, Manassas, Va.) were grown on sterile glass cover slips (40 mm) and incubated at 37° C. until they reached 40-60% confluency in a 5% fetal bovine serum/RPMI1640 medium solution.
as §1
Attachment of the biotinylated microbubble to the cultured MCF-7 breast cancer cells was imaged using an inverted microscope Zeiss Axiovert 200M fitted with an AxioCam MRm camera. Adherent cancer cells on glass cover slips were assembled into a parallel plate flow chamber (Bioptechs FCS2, Micro-Environmental Systems) with a constant temperature maintained at 37° C. The prepared solution of biotinylated microbubbles was introduced into the parallel plate flow chamber via ⅛-inch diameter tubing (Silastic) at a controlled rate of 0.01 mL/min using an adjustable infusion-withdrawal syringe pump (Harvard Apparatus, Holliston, Mass.). A negative control experiment was performed using a preparation of Targestar^B microbubbles without any added biotin-bleomycin A5 ligand. ‘Normal’ human breast MCF-10A cells were used as well for comparison purposes. […]

Substance | Targestar B microbubble attachment to cells (microscopy, in words) [1] | Targestar B microbubble attachment to cells (microscopy, in words) ([2]; FIGS. 3, 4, 6-8, listed as biotinylated BLM A5) | Targestar B microbubble attachment to cells (microscopy, in words) ([2]; FIGS. 3, 4, 6-8, listed as biotinylated bleomycin) | Targestar B microbubble attachment to cells (microscopy, in words) ([2]; FIGS. 3, 4, 6-8)
biotinylated bleomycin A5 [Biotinylated BLM A5] | attachment was not observed | selective attachment | did promote attachment | 
biotinylated deglycobleomycin A5 | does not promote Targestar B microbubble attachment; also recorded: lack of attachment |  |  | does not promote Targestar B microbubble attachment; also recorded: did not reveal the presence of microbubbles attached

From patent publication US20110293530A1, “Methods and Compositions for Using Bleomycin-Derivatized Microbubbles” (ARIZONIA BOARD OF REGENTS, priority 2008, published 2011)
